Assay results from ChEMBL document CHEMBL1201862, “PubChem BioAssay data set” (2004).
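Following 48 hours of exposure in 96-well plates, responses at five concentrations were used to interpolate endpoints linearly. GI50 = concentration required for 50% inhibition of growth.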 Activity calls are given as the source filed them. Rule as the data show it: active = GI50 up to about 1.1 µM and inactive = higher.

What was measured:
Test in all cases: inhibition of tumour cell growth, NCI panel, 48 h
MDA-MB-231 = tested on: MDA-MB-231
SNB-75 = tested on: SNB-75
NCI-H23 = tested on: NCI-H23
HOP-62 = tested on: HOP-62
ACHN = tested on: ACHN
HOP-92 = tested on: HOP-92
DU-145 = tested on: DU-145
RPMI-8226 = tested on: RPMI-8226
CCRF-CEM = tested on: CCRF-CEM
SK-MEL-5 = tested on: SK-MEL-5
KM12 = tested on: KM12
COLO 205 = tested on: COLO 205
HCC 2998 = tested on: HCC 2998
PC-3 = tested on: PC-3
SK-MEL-2 = tested on: SK-MEL-2
SF-539 = tested on: SF-539
SW-620 = tested on: SW-620
OVCAR-5 = tested on: OVCAR-5
BT-549 = tested on: BT-549
IGROV-1 = tested on: IGROV-1
786-0 = tested on: 786-0
OVCAR-3 = tested on: OVCAR-3
Malme-3M = tested on: Malme-3M
UACC-257 = tested on: UACC-257
HL-60 = tested on: HL-60
OVCAR-4 = tested on: OVCAR-4
HCT-116 = tested on: HCT-116
UO-31 = tested on: UO-31
MDA-MB-435 = tested on: MDA-MB-435
EKVX = tested on: EKVX
MDA-N = tested on: MDA-N
SNB-19 = tested on: SNB-19
OVCAR-8 = tested on: OVCAR-8
SK-MEL-28 = tested on: SK-MEL-28
SF-295 = tested on: SF-295
MCF7 = tested on: MCF7
A498 = tested on: A498
M14 = tested on: M14
K562 = tested on: K562
U-251 = tested on: U-251
A549 = tested on: A549
HT-29 = tested on: HT-29
NCI-H226 = tested on: NCI-H226
NCI/ADR-RES = tested on: NCI/ADR-RES
MOLT-4 = tested on: MOLT-4
NCI-H522 = tested on: NCI-H522
LOX IMVI = tested on: LOX IMVI
CAKI-1 = tested on: CAKI-1
SR = tested on: SR
SN12C = tested on: SN12C
RXF 393 = tested on: RXF 393
UACC-62 = tested on: UACC-62
SF-268 = tested on: SF-268
NCI-H460 = tested on: NCI-H460
TK-10 = tested on: TK-10
SK-OV-3 = tested on: SK-OV-3
HCT-15 = tested on: HCT-15
T47D = tested on: T47D
Hs-578T = tested on: Hs-578T

Measured: GI50

CSc1nc2c(c(=O)[nH]1)N=C(c1ccc([N+](=O)[O-])cc1)CC(c1ccccc1)N2 (stereo not given)
inactive: MDA-MB-231 32.3 µM | SNB-75 22.7 µM | NCI-H23 41.3 µM | HOP-62 > 100 µM | ACHN 31.9 µM | HOP-92 > 100 µM | DU-145 86.1 µM | RPMI-8226 22 µM | CCRF-CEM 29.2 µM | SK-MEL-5 20.9 µM | KM12 17.9 µM | COLO 205 55.1 µM | HCC 2998 22.5 µM | PC-3 49.4 µM | SK-MEL-2 28.3 µM | SF-539 29.2 µM | SW-620 22.9 µM | OVCAR-5 > 100 µM | BT-549 37.7 µM | IGROV-1 32.7 µM | 786-0 34.7 µM | OVCAR-3 55.6 µM | Malme-3M 55.5 µM | UACC-257 44.9 µM | HL-60 14.7 µM | OVCAR-4 28.7 µM | HCT-116 21.4 µM | UO-31 50 µM | MDA-MB-435 28.2 µM | EKVX 36.4 µM | MDA-N 38.2 µM | SNB-19 > 100 µM | OVCAR-8 34.5 µM | SK-MEL-28 22.7 µM | SF-295 51.1 µM | MCF7 23.7 µM | A498 > 100 µM | M14 29.7 µM | K562 34.4 µM | U-251 33.6 µM | A549 32.4 µM | HT-29 20.3 µM | NCI-H226 > 100 µM | NCI/ADR-RES 30 µM | MOLT-4 31.3 µM | NCI-H522 23.9 µM | LOX IMVI 28.1 µM | CAKI-1 89.1 µM | SR 62.4 µM | SN12C 54.8 µM | RXF 393 23.2 µM | UACC-62 27.4 µM

CC1=C2C(=C[C@H]3[C@]4(C)CCCC(C)(C)[C@H]4CC[C@]34O[C@H]24)OC1=O
inactive: MDA-MB-231 > 100 µM | SNB-75 > 100 µM | NCI-H23 > 100 µM | HOP-62 > 100 µM | ACHN > 100 µM | HOP-92 > 100 µM | DU-145 > 100 µM | RPMI-8226 > 100 µM | SK-MEL-5 > 100 µM | KM12 > 100 µM | COLO 205 > 100 µM | HCC 2998 > 100 µM | PC-3 > 100 µM | SK-MEL-2 > 100 µM | SW-620 > 100 µM | OVCAR-5 > 100 µM | BT-549 > 100 µM | IGROV-1 > 100 µM | 786-0 > 100 µM | Malme-3M > 100 µM | UACC-257 > 100 µM | SF-268 > 100 µM | OVCAR-4 > 100 µM | NCI-H460 > 100 µM | HCT-116 > 100 µM | UO-31 > 100 µM | MDA-MB-435 > 100 µM | EKVX > 100 µM | MDA-N > 100 µM | SNB-19 > 100 µM | TK-10 > 100 µM | SK-MEL-28 > 100 µM | SF-295 > 100 µM | MCF7 > 100 µM | A498 > 100 µM | M14 > 100 µM | K562 > 100 µM | U-251 > 100 µM | A549 > 100 µM | HT-29 > 100 µM | NCI-H226 > 100 µM | NCI/ADR-RES > 100 µM | MOLT-4 > 100 µM | NCI-H522 > 100 µM | SK-OV-3 > 100 µM | SN12C > 100 µM | RXF 393 > 100 µM | UACC-62 > 100 µM
> 100 µM: HCT-15

CC(=O)/N=C1/N(/C=C2\C(=O)Oc3ccccc3C2=O)C(=O)/C(=C/c2ccc(Cl)cc2Cl)N1C
active: Hs-578T 0.991 µM
inactive: MDA-MB-231 > 100 µM | SNB-75 18.7 µM | NCI-H23 > 100 µM | HOP-62 48.3 µM | ACHN > 100 µM | DU-145 > 100 µM | T47D > 100 µM | RPMI-8226 26.4 µM | CCRF-CEM 66.8 µM | SK-MEL-5 10.9 µM | KM12 66.8 µM | COLO 205 > 100 µM | HCC 2998 > 100 µM | PC-3 > 100 µM | SK-MEL-2 71.4 µM | SF-539 25.6 µM | SW-620 50.6 µM | OVCAR-5 > 100 µM | BT-549 11.5 µM | IGROV-1 40 µM | 786-0 > 100 µM | OVCAR-3 59.2 µM | Malme-3M > 100 µM | UACC-257 > 100 µM | HL-60 36.6 µM | SF-268 28.8 µM | OVCAR-4 > 100 µM | NCI-H460 > 10 µM | HCT-116 81.1 µM | MDA-MB-435 34.2 µM | EKVX 18.7 µM | OVCAR-8 > 100 µM | SK-MEL-28 73.8 µM | SF-295 > 100 µM | MCF7 > 100 µM | A498 19.2 µM | M14 > 100 µM | K562 39.4 µM | U-251 52.6 µM | A549 96.6 µM | HT-29 > 100 µM | NCI-H226 > 100 µM | NCI/ADR-RES > 100 µM | MOLT-4 40.7 µM | NCI-H522 94 µM | LOX IMVI 62.2 µM | CAKI-1 > 100 µM | SR 17.4 µM | SK-OV-3 > 100 µM | SN12C > 100 µM | RXF 393 > 100 µM | UACC-62 26.2 µM
> 100 µM: HCT-15
